Results: patent US20240181091A1, “ORAL DELIVERY OF SILICA/ALUMINOSILICATE NANOPARTICLES” (Cornell University, priority 2021, published 2024)

System: Caco-2 monolayer
Assay type: in vitro ADME, human
Method: To test that the monolayer well resembled the epithelial lining of the GI tract and formed tight junctions, Lucifer Yellow (LY) was used as a standard. It has been reported that the integrity of a Caco-2 monolayer is good once the Papp of LY across the monolayer is <5×10^−7 cm/s. The measured Papp of LY across all Caco-2 monolayers (see Methods for more details) used in this study is depicted in FIG. 8B, with all values of Papp<3×10^−7 cm/s.
Caco-2 Cell Culture: Caco-2 cells (ATCC) were cultured in RPMI 1640 supplemented with 20% fetal bovine serum and 10k/10k penicillin/streptomycin (Lonza). 75 μL of Caco-2 cells were plated on the apical side of a 96-well Transwell dish at a seeding density of 2×10^5 cells/mL. 75 μL of media was used on the apical side and 235 μL on the basolateral side. The media was changed every other day for a week, followed by changes every day until the Papp of a Lucifer Yellow assay was <5×10^−7 cm/s. Cells were incubated at 37° C. with 5% CO2 and 90% humidity.
Lucifer Yellow Monolayer Integrity Assay: Lucifer Yellow (LY) was dissolved at a concentration of 0.1 mg/mL in Hank's balanced salt solution (HBSS). 75 μL of LY solution was added to the apical side and 235 μL HBSS was added to the basolateral side. […] The concentration of LY on the basolateral side was determined using fluorescence 488/520 ex/em with a Spectramax M2. […]

- Papp of Lucifer Yellow across Caco-2 monolayers: < 0.3 ×10⁻⁶ cm/s
Substance: Lucifer Yellow [LY]
